Data reported in ChEMBL document CHEMBL4715814, “Design, synthesis and biological activity evaluation of novel 4-subtituted 2-naphthamide derivatives as AcrB inhibitors” (2018).
Activity calls are given as the source filed them. The calls are words filed in the database; no cut-off is given here.

What was measured:
[1] = system: Escherichia coli; test: Potentiation of chloramphenicol-induced antibacterial activity against AcrB deficient Escherichia coli BW25113 assessed as chloramphenicol MIC at 512 ug/ml incubated for 18 hrs under aerobic condition by checkerboard titration assay (reference value: 2 ug/ml); assay type: functional; details: dose 512 µg/ml
[2] = system: Escherichia coli; test: Potentiation of erythromycin-induced antibacterial activity against AcrB deficient Escherichia coli BW25113 assessed as erythromycin MIC at 512 ug/ml incubated for 18 hrs under aerobic condition by checkerboard titration assay (reference value: 32 ug/ml); assay type: functional; details: dose 512 µg/ml
[3] = system: Escherichia coli; test: Potentiation of erythromycin-induced antibacterial activity against wild type Escherichia coli BW25113 assessed as erythromycin MIC at 512 ug/ml incubated for 18 hrs under aerobic condition by checkerboard titration assay (reference value: 128 ug/ml); assay type: functional; details: dose 512 µg/ml
[4] = system: Escherichia coli; test: Potentiation of chloramphenicol-induced antibacterial activity against wild type Escherichia coli BW25113 assessed as chloramphenicol MIC at 256 ug/ml incubated for 18 hrs under aerobic condition by checkerboard titration assay (reference value: 16 ug/ml); assay type: functional; details: dose 256 µg/ml
[5] = system: Escherichia coli; test: Potentiation of TPP-induced antibacterial activity against wild type Escherichia coli BW25113 assessed as TPP MIC at 256 ug/ml incubated for 18 hrs under aerobic condition by checkerboard titration assay (reference value: 1024 ug/ml); assay type: functional; details: dose 256 µg/ml
[6] = system: Escherichia coli; test: Potentiation of erythromycin-induced antibacterial activity against wild type Escherichia coli BW25113 assessed as erythromycin MIC at 256 ug/ml incubated for 18 hrs under aerobic condition by checkerboard titration assay (reference value: 128 ug/ml); assay type: functional; details: dose 256 µg/ml
[7] = system: Escherichia coli; test: Potentiation of chloramphenicol-induced antibacterial activity against wild type Escherichia coli BW25113 assessed as fold reduction in chloramphenicol MIC at 512 ug/ml incubated for 18 hrs under aerobic condition by checkerboard titration assay relative to chloramphenicol MIC alone; assay type: functional; details: dose 512 µg/ml
[8] = system: Escherichia coli; test: Potentiation of rifampicin-induced antibacterial activity against wild type Escherichia coli BW25113 assessed as rifampicin MIC at 256 ug/ml incubated for 18 hrs under aerobic condition by checkerboard titration assay (reference value: 16 ug/ml); assay type: functional; details: dose 256 µg/ml
[9] = system: Escherichia coli; test: Potentiation of chloramphenicol-induced antibacterial activity against wild type Escherichia coli BW25113 assessed as chloramphenicol MIC at 512 ug/ml incubated for 18 hrs under aerobic condition by checkerboard titration assay (reference value: 16 ug/ml); assay type: functional; details: dose 512 µg/ml
[10] = system: Escherichia coli; test: Potentiation of TPP-induced antibacterial activity against wild type Escherichia coli BW25113 assessed as TPP MIC at 512 ug/ml incubated for 18 hrs under aerobic condition by checkerboard titration assay (reference value: 1024 ug/ml); assay type: functional; details: dose 512 µg/ml
[11] = system: Escherichia coli; test: Potentiation of chloramphenicol-induced antibacterial activity against AcrB deficient Escherichia coli BW25113 assessed as chloramphenicol MIC at 256 ug/ml incubated for 18 hrs under aerobic condition by checkerboard titration assay (reference value: 2 ug/ml); assay type: functional; details: dose 256 µg/ml
[12] = system: Escherichia coli; test: Potentiation of TPP-induced antibacterial activity against wild type Escherichia coli BW25113 assessed as TPP MIC at 128 ug/ml incubated for 18 hrs under aerobic condition by checkerboard titration assay (reference value: 1024 ug/ml); assay type: functional; details: dose 128 µg/ml
[13] = system: Escherichia coli; test: Potentiation of chloramphenicol-induced antibacterial activity against wild type Escherichia coli BW25113 assessed as chloramphenicol MIC at 128 ug/ml incubated for 18 hrs under aerobic condition by checkerboard titration assay (reference value: 16 ug/ml); assay type: functional; details: dose 128 µg/ml
[14] = system: Cell membrane; test: Disruption of inner membrane potential in wild type Escherichia coli BW25113 at 512 ug/ml preincubated for 10 mins followed by glucose stimulation and CCCP addition by DiOC2 probe based fluorimetric analysis; assay type: subcellular; details: dose 512.0 µg/ml
[15] = system: Escherichia coli; test: Antibacterial activity against Wild type Escherichia coli BW25113 assessed as inhibition of AcrB efflux pump by mesuring the glucose-induced nile red efflux at 500 uM preincubated with CCCP for 15 mins followed by compound addition after 15 mins nile red added and incubated for 3 hrs in shaker by fluorimetric analysis; assay type: functional, organism-based; details: time 195.0 min
[16] = system: Escherichia coli; test: Potentiation of erythromycin-induced antibacterial activity against AcrB deficient Escherichia coli BW25113 assessed as erythromycin MIC at 256 ug/ml incubated for 18 hrs under aerobic condition by checkerboard titration assay (reference value: 32 ug/ml); assay type: functional; details: dose 256 µg/ml
[17] = system: Escherichia coli; test: Potentiation of rifampicin-induced antibacterial activity against wild type Escherichia coli BW25113 assessed as rifampicin MIC at 128 ug/ml incubated for 18 hrs under aerobic condition by checkerboard titration assay (reference value: 16 ug/ml); assay type: functional; details: dose 128 µg/ml
[18] = system: Escherichia coli; test: Potentiation of erythromycin-induced antibacterial activity against wild type Escherichia coli BW25113 assessed as erythromycin MIC at 128 ug/ml incubated for 18 hrs under aerobic condition by checkerboard titration assay (reference value: 128 ug/ml); assay type: functional; details: dose 128 µg/ml
[19] = system: Escherichia coli; test: Potentiation of TPP-induced antibacterial activity against AcrB deficient Escherichia coli BW25113 assessed as TPP MIC at 256 ug/ml incubated for 18 hrs under aerobic condition by checkerboard titration assay (reference value: 256 ug/ml); assay type: functional; details: dose 256 µg/ml
[20] = system: Escherichia coli; test: Potentiation of TPP-induced antibacterial activity against wild type Escherichia coli BW25113 assessed as fold reduction in TPP MIC at 256 ug/ml incubated for 18 hrs under aerobic condition by checkerboard titration assay relative to TPP MIC alone; assay type: functional; details: dose 256 µg/ml
[21] = system: Cell membrane; test: Induction of outer membrane permeabilization in wild type Escherichia coli BW25113 assessed as increase in nitrocefin hydrolysis at 512 ug/ml measured for 30 mins in presence of CCCP by spectrophotometry analysis; assay type: subcellular; details: dose 512.0 µg/ml
[22] = system: Escherichia coli; test: Potentiation of chloramphenicol-induced antibacterial activity against AcrB deficient Escherichia coli BW25113 assessed as chloramphenicol MIC at 32 ug/ml incubated for 18 hrs under aerobic condition by checkerboard titration assay (reference value: 2 ug/ml); assay type: functional; details: dose 32 µg/ml
[23] = system: Escherichia coli; test: Potentiation of erythromycin-induced antibacterial activity against AcrB deficient Escherichia coli BW25113 assessed as erythromycin MIC at 32 ug/ml incubated for 18 hrs under aerobic condition by checkerboard titration assay (reference value: 32 ug/ml); assay type: functional; details: dose 32 µg/ml
[24] = system: Escherichia coli; test: Potentiation of TPP-induced antibacterial activity against AcrB deficient Escherichia coli BW25113 assessed as TPP MIC at 32 ug/ml incubated for 18 hrs under aerobic condition by checkerboard titration assay (reference value: 256 ug/ml); assay type: functional; details: dose 32 µg/ml
[25] = system: Escherichia coli; test: Potentiation of rifampicin-induced antibacterial activity against wild type Escherichia coli BW25113 assessed as rifampicin MIC at 512 ug/ml incubated for 18 hrs under aerobic condition by checkerboard titration assay (reference value: 16 ug/ml); assay type: functional; details: dose 512 µg/ml
[26] = system: Escherichia coli; test: Potentiation of chloramphenicol-induced antibacterial activity against wild type Escherichia coli BW25113 assessed as fold reduction in chloramphenicol MIC at 256 ug/ml incubated for 18 hrs under aerobic condition by checkerboard titration assay relative to chloramphenicol MIC alone; assay type: functional; details: dose 256 µg/ml
[27] = system: Escherichia coli; test: Potentiation of TPP-induced antibacterial activity against AcrB deficient Escherichia coli BW25113 assessed as TPP MIC at 512 ug/ml incubated for 18 hrs under aerobic condition by checkerboard titration assay (reference value: 256 ug/ml); assay type: functional; details: dose 512 µg/ml
[28] = system: Escherichia coli; test: Antibacterial activity against Wild type Escherichia coli BW25113 assessed as inhibition of AcrB efflux pump by mesuring the glucose-induced nile red efflux at 100 uM preincubated with CCCP for 15 mins followed by compound addition after 15 mins nile red added and incubated for 3 hrs in shaker by fluorimetric analysis; assay type: functional, organism-based; details: time 195.0 min
[29] = system: Escherichia coli; test: Potentiation of chloramphenicol-induced antibacterial activity against wild type Escherichia coli BW25113 assessed as fold reduction in chloramphenicol MIC at 128 ug/ml incubated for 18 hrs under aerobic condition by checkerboard titration assay relative to chloramphenicol MIC alone; assay type: functional; details: dose 128 µg/ml
[30] = system: Escherichia coli; test: Antibacterial activity against wild type Escherichia coli BW25113 assessed as inhibition of bacterial growth at 256 ug/ml after 18 hrs by microtitre broth dilution assay; assay type: functional, organism-based; details: dose 256.0 µg/ml
[31] = system: Escherichia coli; test: Antibacterial activity against AcrB deficient Escherichia coli BW25113 assessed as inhibition of bacterial growth at 256 ug/ml after 18 hrs by microtitre broth dilution assay; assay type: functional, organism-based; details: dose 256.0 µg/ml
[32] = system: Escherichia coli; test: Potentiation of chloramphenicol-induced antibacterial activity against AcrB deficient Escherichia coli BW25113 assessed as chloramphenicol MIC at 128 ug/ml incubated for 18 hrs under aerobic condition by checkerboard titration assay (reference value: 2 ug/ml); assay type: functional; details: dose 128 µg/ml
[33] = system: Escherichia coli; test: Potentiation of erythromycin-induced antibacterial activity against wild type Escherichia coli BW25113 assessed as fold reduction in erythromycin MIC at 128 ug/ml incubated for 18 hrs under aerobic condition by checkerboard titration assay relative to erythromycin MIC alone; assay type: functional; details: dose 128 µg/ml
[34] = system: Escherichia coli; test: Potentiation of erythromycin-induced antibacterial activity against AcrB deficient Escherichia coli BW25113 assessed as erythromycin MIC at 128 ug/ml incubated for 18 hrs under aerobic condition by checkerboard titration assay (reference value: 32 ug/ml); assay type: functional; details: dose 128 µg/ml
[35] = system: Escherichia coli; test: Potentiation of TPP-induced antibacterial activity against AcrB deficient Escherichia coli BW25113 assessed as TPP MIC at 128 ug/ml incubated for 18 hrs under aerobic condition by checkerboard titration assay (reference value: 256 ug/ml); assay type: functional; details: dose 128 µg/ml

Row | SMILES | MIC [1] | MIC [3] | MIC [4] | MIC [5] | MIC [6] | MIC [8] | MIC [9] | MIC [10] | MIC [11] | MIC [12] | MIC [13] | Activity [14] | Activity [15] | MIC [16] | MIC [17] | MIC [18] | MIC [19] | fold change (FC) [20] | Activity [21] | also measured
1 | O=C(Nc1ccccc1C(F)(F)F)c1cc(OCc2ccccc2)c2ccccc2c1 | 0.5 µg/mL | 128 µg/mL | 8 µg/mL | 1020 µg/mL | 128 µg/mL | 16 µg/mL | 2 µg/mL | 1020 µg/mL | – | – | – | – | – | – | – | – | – | – | – | MIC [2]: 16 µg/mL; fold change (FC) [7]: 8
2 | O=C(NCc1ccccc1Cl)c1cc(OCc2ccccc2)c2ccccc2c1 | – | – | 4 µg/mL | 256 µg/mL | 64 µg/mL | 4 µg/mL | – | – | 2 µg/mL | 1020 µg/mL | 16 µg/mL | Active | Active | 32 µg/mL | 16 µg/mL | 128 µg/mL | 256 µg/mL | 4 | Active | –
3 | CC(C)CCOc1cc(C(=O)NCCc2ccccc2)cc2ccccc12 | – | – | 4 µg/mL | 1020 µg/mL | 32 µg/mL | 16 µg/mL | – | – | – | 1020 µg/mL | 8 µg/mL | inactive | inactive | – | 16 µg/mL | 64 µg/mL | – | – | inactive | MIC [22]: 2 µg/mL; MIC [23]: 2 µg/mL; MIC [24]: 32 µg/mL
4 | O=C(Nc1ccccc1)c1cc(OCc2ccccc2)c2ccccc2c1 | – | 128 µg/mL | 16 µg/mL | 1020 µg/mL | 128 µg/mL | 16 µg/mL | 16 µg/mL | 512 µg/mL | 2 µg/mL | – | – | Active | Active | – | – | – | 256 µg/mL | – | Active | MIC [25]: 8 µg/mL
5 | NC(=O)c1cc(OCCNCc2ccc(O)cc2)c2ccccc2c1 | – | – | 4 µg/mL | 256 µg/mL | 128 µg/mL | 8 µg/mL | – | – | 2 µg/mL | 1020 µg/mL | 8 µg/mL | inactive | inactive | 32 µg/mL | 8 µg/mL | 128 µg/mL | 256 µg/mL | 4 | inactive | fold change (FC) [26]: 4
6 | CC(C)CCOc1cc(C(N)=O)cc2ccccc12 | 2 µg/mL | 32 µg/mL | 8 µg/mL | 512 µg/mL | 64 µg/mL | 16 µg/mL | 4 µg/mL | 256 µg/mL | – | – | – | – | – | – | – | – | – | – | – | MIC [2]: 32 µg/mL; MIC [27]: 256 µg/mL; MIC [25]: 16 µg/mL
7 | CCCCCCNC(=O)c1cc(OCc2ccccc2)c2ccccc2c1 | 2 µg/mL | – | 4 µg/mL | 256 µg/mL | 128 µg/mL | 4 µg/mL | – | – | – | 1020 µg/mL | 8 µg/mL | Active | – | – | 16 µg/mL | 128 µg/mL | – | 4 | Active | MIC [27]: 256 µg/mL
8 | NC(=O)c1cc(OCCNC2CCCCC2)c2ccccc2c1 | – | – | – | – | – | – | – | – | 1 µg/mL | 1020 µg/mL | 4 µg/mL | inactive | – | 8 µg/mL | 8 µg/mL | 16 µg/mL | 128 µg/mL | – | Active | Activity [28]: Active; fold change (FC) [29]: 8; Activity [30]: Active; Activity [31]: Active; MIC [32]: 2 µg/mL; fold change (FC) [33]: 8; MIC [34]: 16 µg/mL; MIC [35]: 256 µg/mL
